Data on 26 molecules can be found in patent US12528773B2, “Non-lysosomal glucosylceramidase inhibitors and uses thereof” (ALECTOS THERAPEUTICS INC., priority 2020, dated 2026).

Read-outs that look alike come from different tables or passages of the source. A value given as a limit tells only on which side of the number the result lay.

One test has as its target GBA2 (Homo sapiens (Human), UniProt Q9HCG7). In words: Inhibition of GBA2 in cell lysate (4-methylumbelliferone glucopyranoside substrate).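 Further: homogenate of stably transfected HEK293T cells pre-treated with a GCase inhibitor, test compound preincubated 5 min at 37 °C, substrate reaction 20 min at 37 °C.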 The format is biochemical.
The subject of test [1] is rat intestinal alpha-glucosidases. In words: Inhibition of rat intestinal alpha-glucosidases (rat intestinal lysate, glucose detection). As to conditions: compound concentration 25 μM, sucrose as substrate. It counts as biochemical. The protocol: Assay for Determination of Inhibition of Rat Intestinal Alpha-Glucosidases
Various concentrations of test compounds were prepared in DMSO and then diluted into buffer consisting of 100 mM citric acid, 200 mM disodium phosphate, pH 6.0. Rat intestinal acetone powder (Sigma) was dissolved to 12.5 mg/mL in assay buffer and sonicated in an ice bath, centrifuged, and the supernatant was collected, aliquoted and stored at −20° C. until use. On the day of the assay, the rat intestinal lysate was diluted to 6.25 mg/mL (sucrose reactions) and 2.1 mg/ml (maltose reactions) in assay buffer. The final reaction solutions for sucrose contained 2.1 mg/mL rat intestinal lysate, 40 mM sucrose, 50 or 25 μM of test compound, and 3.3% DMSO. The final reaction solution for maltose contained 0.69 mg/mL rat intestinal lysate, 10 mM maltose, 50 or 25 μM of test compound, and 3.3% DMSO. The reaction was initiated by the addition of substrate (sucrose or maltose) and allowed to proceed at 37° C. for 20 min to assess rat intestinal alpha-glycosidase activities. The reaction was stopped by addition of 20 μL of 2 M Tris-HCl, pH 7.0. The glucose produced during the reaction was detected using a commercial Amplex Red glucose detection kit from Thermo Fisher. For a full plate, the Amplex Red detection mixture was prepared by mixing 35 μL glucose oxidase, 35 μL horseradish peroxidase and 35 μL Amplex Red into 3395 μL 1× Amplex Red detection buffer. A total of 30 μL of detection mixture was added to each well. Fluorescence was measured in kinetic mode on a Biotek Synergy H4 plate reader at a wavelength of 573 nm for excitation and 610 nm for emission for 15 min and quantified from the data at 10 min. Incubations without added rat intestinal lysate were used to correct for the background amount of glucose present in the samples. Incubations without added test compound were used to define maximal enzyme activity. Percent inhibition of rat intestinal alpha-glucosidases was determined by dividing the amount of glucose detected in the presence of test compound by the amount of glucose detected in the maximal enzyme activity wells. All conditions were analyzed in triplicate. […] The final reaction solutions were the same as described above for the Amplex Red Detection kit. After a 20 min reaction time at 37° C., 100 μL of hexokinase glucose reagent was added to all test wells except for the no enzyme added control wells and no test compound added wells. The plate was incubated for a further 15 min at room temperature and the absorbance was read at 340 nm on a Biotek Synergy H4 plate reader. The percent inhibition of rat intestinal alpha-glucosidases was determined in a similar manner as described above.

Where [2] appears, read: HEK293T-overexpressing GBA2 cellular homogenate, pH 5.5, read-out: GBA2 IC50.

GBA2, sequence (Q9HCG7 whole entry): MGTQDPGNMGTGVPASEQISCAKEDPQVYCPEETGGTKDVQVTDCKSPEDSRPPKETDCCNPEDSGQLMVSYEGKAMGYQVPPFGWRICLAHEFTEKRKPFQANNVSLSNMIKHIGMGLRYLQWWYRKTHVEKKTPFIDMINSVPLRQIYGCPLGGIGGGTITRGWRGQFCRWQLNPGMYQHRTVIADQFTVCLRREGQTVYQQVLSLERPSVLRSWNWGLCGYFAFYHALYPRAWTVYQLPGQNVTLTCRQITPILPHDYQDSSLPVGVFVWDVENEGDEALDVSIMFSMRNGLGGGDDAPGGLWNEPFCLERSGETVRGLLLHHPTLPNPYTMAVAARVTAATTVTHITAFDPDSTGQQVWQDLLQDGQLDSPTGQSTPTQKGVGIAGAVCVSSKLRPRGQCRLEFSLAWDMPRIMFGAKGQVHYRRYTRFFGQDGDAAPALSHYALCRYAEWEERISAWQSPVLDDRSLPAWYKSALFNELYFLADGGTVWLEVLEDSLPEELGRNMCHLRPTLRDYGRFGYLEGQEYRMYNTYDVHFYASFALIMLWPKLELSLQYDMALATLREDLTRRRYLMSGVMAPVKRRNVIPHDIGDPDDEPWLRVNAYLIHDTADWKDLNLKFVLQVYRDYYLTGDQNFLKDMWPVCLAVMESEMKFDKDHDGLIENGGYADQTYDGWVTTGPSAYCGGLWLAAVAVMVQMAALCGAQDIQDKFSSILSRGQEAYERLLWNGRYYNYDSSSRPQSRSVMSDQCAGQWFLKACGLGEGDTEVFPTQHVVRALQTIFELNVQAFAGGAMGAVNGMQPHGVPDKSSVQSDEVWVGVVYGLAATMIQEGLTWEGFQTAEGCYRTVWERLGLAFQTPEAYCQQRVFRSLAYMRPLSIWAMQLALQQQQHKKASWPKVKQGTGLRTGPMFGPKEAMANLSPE

The term IC50 denotes the concentration that gives 50% inhibition. As to `O[C@H]1[C@H](O)CN(CCc2cccc(Cl)c2F)C[C@@H]1O` [Example 6, (3S,4r,5R)-1-(3-chloro-2-fluorophenethyl)piperidine-3,4,5-triol], on GBA2 (setting [2]), the half-inhibitory concentration (IC50) is less than 100 nM. Further, in test [1], the “rat α-glu. (% inhib.)” value is 3%.
On the same counts, the results for `O[C@H]1[C@H](O)CN(C[C@@H]2CCN(c3ccc(C(F)(F)F)nc3)C2)C[C@@H]1O` [Example 162, (3S,4S,5R)-1-(((S)-1-(6-(trifluoromethyl)pyridin-3-yl)pyrrolidin-3-yl)methyl)piperidine-3,4,5-triol] are less than 100 nM and 0%.
The matching figures for `O[C@H]1[C@H](O)CN(Cc2ccc(OCC3CC3)cc2)C[C@@H]1O` [Example 200, (3S,4r,5R)-1-(4-(cyclopropylmethoxy)benzyl)piperidine-3,4,5-triol]: less than 100 nM and 7%.
For `CCCCOc1cc(F)c(CN2C[C@@H](O)[C@H](O)[C@@H](O)C2)c(F)c1` [Example 199, (3S,4r,5R)-1-(4-butoxy-2,6-difluorobenzyl)piperidine-3,4,5-triol], on GBA2 (setting [2]), the IC50 was in the range of 1000 to 25000 nM. The “rat α-glu. (% inhib.)” value in test [1] amounted to 5%.
The matching figures for `O[C@H]1[C@H](O)CN(CC2(F)CCN(c3ncccc3C(F)(F)F)CC2)C[C@@H]1O` [Example 194, (3S,4r,5R)-1-((4-fluoro-1-(3-(trifluoromethyl)pyridin-2-yl)piperidin-4-yl)methyl)piperidine-3,4,5-triol]: less than 100 nM and 4%.
The matching figures for `O[C@H]1[C@H](O)CN(C[C@H]2CCCN(c3cncc(C(F)(F)F)c3)C2)C[C@@H]1O` [Example 168, (3S,4R,5R)-1-(((R)-1-(5-(trifluoromethyl)pyridin-3-yl)piperidin-3-yl)methyl)piperidine-3,4,5-triol]: less than 100 nM and 7%.
On the same counts, the results for `O[C@H]1[C@H](O)CN(C[C@@H]2CCCN(c3ccc(C(F)(F)F)cn3)C2)C[C@@H]1O` [Example 177, (3S,4S,5R)-1-(((S)-1-(5-(trifluoromethyl)pyridin-2-yl)piperidin-3-yl)methyl)piperidine-3,4,5-triol] are 1000 to 25000 nM and 7%.
At GBA2, `CC(Cc1cccc(Cl)c1F)N1C[C@@H](O)[C@H](O)[C@@H](O)C1` (stereo partly drawn) [Example 16, (3S,4r,5R)-1-(1-(3-chloro-2-fluorophenyl)propan-2-yl)piperidine-3,4,5-triol] displayed an IC50 of 100 to 1000 nM. The “rat α-glu. (% inhib.)” value in test [1] was 7%.
As to `O[C@H]1[C@H](O)CN(C[C@@H]2CCN(c3nc(C(F)(F)F)cs3)C2)C[C@@H]1O` [Example 27, (3S,4S,5R)-1-(((S)-1-(4-(trifluoromethyl)thiazol-2-yl)pyrrolidin-3-yl)methyl)piperidine-3,4,5-triol], the IC50 on GBA2 (setting [2]) is less than 100 nM. For the same molecule, in test [1], the “rat α-glu. (% inhib.)” value was 2%.
The matching figures for `CCCCCOc1ccc(CN2C[C@@H](O)[C@H](O)[C@@H](O)C2)cc1` [Example 198, (3S,4r,5R)-1-(4-(pentyloxy)benzyl)piperidine-3,4,5-triol]: less than 100 nM and 12%.
For the molecule `CCCCOc1ccc(CN2C[C@@H](O)[C@H](O)[C@@H](O)C2)cc1` [Example 197, (3S,4r,5R)-1-(4-butoxybenzyl)piperidine-3,4,5-triol], the 50% inhibitory concentration (IC50) on GBA2 (setting [2]) is less than 100 nM. In test [1], the “rat α-glu. (% inhib.)” value came out at 5%.
Turning to `O[C@H]1[C@H](O)CN(CC2Cc3ccccc3C2)C[C@@H]1O` [Example 62, (3S,4r,5R)-1-((2,3-dihydro-1H-inden-2-yl)methyl)piperidine-3,4,5-triol], the IC50 at GBA2 (setting [2]) was less than 100 nM. Further, the “rat α-glu. (% inhib.)” value in test [1] is listed as 12%.
On the same counts, the results for `O[C@H]1[C@H](O)CN(CC2Cc3c(F)ccc(F)c3C2)C[C@@H]1O` [Example 190, (3S,4r,5R)-1-((4,7-difluoro-2,3-dihydro-1H-inden-2-yl)methyl)piperidine-3,4,5-triol] are less than 100 nM and 4%.
The matching figures for `O[C@H]1[C@H](O)CN(C[C@@H]2CCN(c3cccc4scnc34)C2)C[C@@H]1O` [Example 28, (3S,4S,5R)-1-(((S)-1-(benzo[d]thiazol-4-yl)pyrrolidin-3-yl)methyl)piperidine-3,4,5-triol]: less than 100 nM and 11%.
The matching figures for `O[C@H]1[C@H](O)CN(C[C@@H]2CCCN(c3cccnc3C(F)(F)F)C2)C[C@@H]1O` [Example 174, (3S,4S,5R)-1-(((S)-1-(2-(trifluoromethyl)pyridin-3-yl)piperidin-3-yl)methyl)piperidine-3,4,5-triol]: less than 100 nM and 3%.
On to `O[C@H]1[C@H](O)CN(CCCC2CCCCC2)C[C@@H]1O` [Example 5, (3S,4r,5R)-1-(3-cyclohexylpropyl)piperidine-3,4,5-triol], for which, at GBA2 (setting [2]), the IC50 was less than 100 nM. The “rat α-glu. (% inhib.)” value in test [1] turned out to be 10%.
The matching figures for `O[C@H]1[C@H](O)CN(C[C@@H]2CCN(c3ccc(C(F)(F)F)cn3)C2)C[C@@H]1O` [Example 161, (3S,4S,5R)-1-(((S)-1-(5-(trifluoromethyl)pyridin-2-yl)pyrrolidin-3-yl)methyl)piperidine-3,4,5-triol]: less than 100 nM and 0%.
On the same counts, the results for `O[C@H]1[C@H](O)CN(C[C@@H]2CCN(c3ncccc3C(F)(F)F)C2)C[C@@H]1O` [Example 24, (3S,4S,5R)-1-(((S)-1-(3-(trifluoromethyl)pyridin-2-yl)pyrrolidin-3-yl)methyl)piperidine-3,4,5-triol] are less than 100 nM and 3%.
The matching figures for `CC(C)c1cnc(N2CCC[C@H](CN3C[C@@H](O)[C@H](O)[C@@H](O)C3)C2)s1` [Example 32, (3S,4R,5R)-1-(((R)-1-(5-isopropylthiazol-2-yl)piperidin-3-yl)methyl)piperidine-3,4,5-triol]: less than 100 nM and 2%.
In the case of `O[C@H]1[C@H](O)CN(C[C@H]2CCCN(c3ccnc(C(F)(F)F)c3)C2)C[C@@H]1O` [Example 173, (3S,4R,5R)-1-(((R)-1-(2-(trifluoromethyl)pyridin-4-yl)piperidin-3-yl)methyl)piperidine-3,4,5-triol], the IC50 at GBA2 (setting [2]) is less than 100 nM. The “rat α-glu. (% inhib.)” value in test [1] came to 3%.
On the same counts, the results for `O[C@H]1[C@H](O)CN(C[C@H]2CCN(c3ccc(C(F)(F)F)nc3)C2)C[C@@H]1O` [Example 149, (3S,4R,5R)-1-(((R)-1-(6-(trifluoromethyl)pyridin-3-yl)pyrrolidin-3-yl)methyl)piperidine-3,4,5-triol] are less than 100 nM and 0%.
On the same counts, the results for `CC(CCc1cccc(Cl)c1F)N1C[C@@H](O)[C@H](O)[C@@H](O)C1` (stereo partly drawn) [Example 17, (3S,4r,5R)-1-(4-(3-chloro-2-fluorophenyl)butan-2-yl)piperidine-3,4,5-triol] are 100 to 1000 nM and 0%.
On the same counts, the results for `O[C@H]1[C@H](O)CN(CC2(F)CCN(c3nc4ccccc4s3)CC2)C[C@@H]1O` [Example 196, (3S,4r,5R)-1-((1-(benzo[d]thiazol-2-yl)-4-fluoropiperidin-4-yl)methyl)piperidine-3,4,5-triol] are 100 to 1000 nM and 10%.
In the case of `O[C@H]1[C@H](O)CN(C[C@@H]2CCN(c3cncnc3C(F)(F)F)C2)C[C@@H]1O` [Example 26, (3S,4S,5R)-1-(((S)-1-(4-(trifluoromethyl)pyrimidin-5-yl)pyrrolidin-3-yl)methyl)piperidine-3,4,5-triol], on GBA2 (setting [2]), the IC50 was less than 100 nM. For the same molecule, the “rat α-glu. (% inhib.)” value in test [1] is 0%.
The matching figures for `O[C@H]1[C@H](O)CN(C[C@@H]2CCCN(c3cc(C(F)(F)F)ccn3)C2)C[C@@H]1O` [Example 176, (3S,4S,5R)-1-(((S)-1-(4-(trifluoromethyl)pyridin-2-yl)piperidin-3-yl)methyl)piperidine-3,4,5-triol]: 100 to 1000 nM and 0%.
On the same counts, the results for `O[C@H]1[C@H](O)CN(Cc2cccs2)C[C@@H]1O` [Example 205, (3S,4r,5R)-1-(thiophen-2-ylmethyl)piperidine-3,4,5-triol] are 1000 to 25000 nM and 4%.
